This is an account of results in ChEMBL document CHEMBL1153777, “Substituted benzothiadizine inhibitors of Hepatitis C virus polymerase” (Bioorg Med Chem Lett, 2009).

Where only a bound is given, the exact number is not on record here.

Series [1] concerns Hepatitis C virus. Nature of the series: Antiviral activity against HCV 1b after 72 hrs by replicon assay in presence of HSA and AAG. The format is functional, organism-based, Hepacivirus hominis. Conditions: genotype 1b. (In general: In antiviral work, replicon cells carry a viral genome segment that copies itself.)
For series [2], the system named is Hepatitis C virus. Nature of the series: Inhibition of HCV1b Cdelta-21-truncated NS5B by enzymatic assay. The format is functional, Hepatitis C virus subtype 1b.
Series [3] relates to Hepatitis C virus. Kind of series: Antiviral activity against HCV 1b after 72 hrs by replicon assay. It counts as functional, organism-based, Hepacivirus hominis. Conditions: genotype 1b.
The next series is filed under the species Homo sapiens. Kind of series: Protein binding in human plasma by equilibrium dialysis. The settings on record: read-out: PPB (converted). (In equilibrium dialysis free small molecules cross a membrane that holds back macromolecules.)
The nature of series [4]: Half life in rat at 4 mg/kg, po and 4 mg/kg, iv. The format is ADME, organism-based. Conditions: in vivo.
The nature of series [5]: Bioavailability in rat at 4 mg/kg, po and 4 mg/kg, iv. The format is ADME, organism-based. Conditions: in vivo.
A further series concerns the target Cytochrome P450 2C9 (Homo sapiens, UniProt P11712). Kind of series: Inhibition of CYP2C9. It counts as ADME.

Chain of Cytochrome P450 2C9 (P11712 whole entry): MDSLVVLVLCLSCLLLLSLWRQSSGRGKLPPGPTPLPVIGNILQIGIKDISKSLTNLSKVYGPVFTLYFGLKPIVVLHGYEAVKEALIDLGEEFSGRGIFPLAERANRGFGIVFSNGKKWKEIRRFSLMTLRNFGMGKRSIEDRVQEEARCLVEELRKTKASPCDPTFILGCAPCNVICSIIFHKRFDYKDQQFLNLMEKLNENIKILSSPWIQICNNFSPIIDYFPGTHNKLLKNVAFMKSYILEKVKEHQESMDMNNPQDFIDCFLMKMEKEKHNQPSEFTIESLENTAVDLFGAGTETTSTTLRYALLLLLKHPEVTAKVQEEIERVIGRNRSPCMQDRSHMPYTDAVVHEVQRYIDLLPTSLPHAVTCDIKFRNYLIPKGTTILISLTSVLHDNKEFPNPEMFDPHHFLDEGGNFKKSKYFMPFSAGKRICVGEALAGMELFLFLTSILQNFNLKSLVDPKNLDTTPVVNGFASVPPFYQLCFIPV

A word on the IC50: it is the concentration needed to halve the response being measured. Consider `CC(C)CCn1c(=O)c(C2=NS(=O)(=O)c3cc(CC#N)ccc3N2)c(O)c2cc(F)ccc21`, for which the IC50 with Hepatitis C virus [1] amounted to 8 µM; in the series with Hepatitis C virus [2], 0.005 µM; in the series with Hepatitis C virus [3], 0.029 µM.

For the compound `CC(C)CCn1c(=O)c(C2=NS(=O)(=O)c3cc(CC(N)=O)ccc3N2)c(O)c2ccccc21`, the IC50 is 2.65 µM in the series with Hepatitis C virus [1], 0.006 µM with Hepatitis C virus [2] and 0.015 µM in the series on Hepatitis C virus [3].

`CC(C)CCn1c(=O)c(C2=NS(=O)(=O)c3cc(CCN)ccc3N2)c(O)c2ccccc21`: the IC50 in the series with Hepatitis C virus [2] came out at 0.142 µM; with Hepatitis C virus [3] it was 0.568 µM.

Turning to `O=c1c(C2=NS(=O)(=O)c3cc(O)ccc3N2)c(O)c2cc(F)ccc2n1CCC1CC1`, the IC50 is 50 µM in the series on Hepatitis C virus [1], less than 0.005 µM in the series on Hepatitis C virus [2] and 0.057 µM with Hepatitis C virus [3].

As to `COc1ccc2c(c1)S(=O)(=O)N=C(c1c(O)c3cc(F)ccc3n(CCC3CC3)c1=O)N2`, the IC50 in the series on Hepatitis C virus [1] was more than 50 µM; in the series on Hepatitis C virus [2], 0.024 µM; with Hepatitis C virus [3], 0.342 µM.

As for `CC(C)CCn1c(=O)c(C2=NS(=O)(=O)c3cc(F)ccc3N2)c(O)c2ccccc21`, the IC50 with Hepatitis C virus [2] turned out to be 0.026 µM; in the series with Hepatitis C virus [3], 0.334 µM.

For `CC(C)CCn1c(=O)c(C2=NS(=O)(=O)c3cc(Cl)ccc3N2)c(O)c2ccccc21`, the IC50 in the series on Hepatitis C virus [1] is more than 50 µM; with Hepatitis C virus [2], 0.076 µM; in the series with Hepatitis C virus [3], 2.32 µM.

On to `CC(C)CCn1c(=O)c(C2=NS(=O)(=O)c3cc(Br)ccc3N2)c(O)c2ccccc21`, for which the IC50 turned out to be 0.173 µM in the series on Hepatitis C virus [2] and 5.14 µM with Hepatitis C virus [3].

`NC(=O)CCc1ccc2c(c1)S(=O)(=O)N=C(c1c(O)c3cc(F)ccc3n(CCC3CC3)c1=O)N2`: the IC50 in the series with Hepatitis C virus [1] is more than 50 µM; with Hepatitis C virus [2], 0.005 µM; in the series with Hepatitis C virus [3] it was 0.208 µM.

`CC(=O)c1ccc2c(c1)S(=O)(=O)N=C(c1c(O)c3ccccc3n(CCC(C)C)c1=O)N2`: the results for the IC50 in the series on Hepatitis C virus [2] and in the series with Hepatitis C virus [3] were 0.127 µM and 5.2 µM, respectively.

On to `COC(=O)c1ccc2c(c1)S(=O)(=O)N=C(c1c(O)c3ccccc3n(CCC(C)C)c1=O)N2`, for which the IC50 in the series with Hepatitis C virus [2] stood at 0.065 µM; with Hepatitis C virus [3] it was 2.62 µM.

With `CC(C)CCn1c(=O)c(C2=NS(=O)(=O)c3cc(C(=O)O)ccc3N2)c(O)c2ccccc21`, the IC50 in the series on Hepatitis C virus [2] was 0.045 µM; in the series on Hepatitis C virus [3], more than 20 µM.

For `CC(C)CCn1c(=O)c(C2=NS(=O)(=O)c3cc(C(N)=O)ccc3N2)c(O)c2ccccc21`, the IC50 was 0.006 µM in the series with Hepatitis C virus [2] and 0.383 µM in the series on Hepatitis C virus [3].

For `NC(=O)OCc1ccc2c(c1)S(=O)(=O)N=C(c1c(O)c3cc(F)ccc3n(CCC3CC3)c1=O)N2`, the IC50 amounted to 0.036 µM in the series with Hepatitis C virus [2] and 0.048 µM with Hepatitis C virus [3].

For `CC(C)CCn1c(=O)c(C2=NS(=O)(=O)c3cc(CC(N)=O)ccc3N2)c(O)c2cc(F)ccc21`, the IC50 with Hepatitis C virus [1] is 3.1 µM; in the series on Hepatitis C virus [2] it was 0.018 µM; in the series with Hepatitis C virus [3], 0.013 µM.

`CC(C)CCn1c(=O)c(C2=NS(=O)(=O)c3cc(I)ccc3N2)c(O)c2ccccc21` had an IC50 with Hepatitis C virus [2] of more than 10 µM.

Consider `CC(C)CCn1c(=O)c(C2=NS(=O)(=O)c3cc(C#N)ccc3N2)c(O)c2ccccc21`, for which the figures for the IC50 in the series on Hepatitis C virus [2] and in the series on Hepatitis C virus [3] were 0.057 µM and 0.486 µM, respectively.

`Cc1ccc2c(c1)S(=O)(=O)N=C(c1c(O)c3ccccc3n(CCC(C)C)c1=O)N2`: the IC50 was found to be 0.05 µM in the series with Hepatitis C virus [2] and 1.78 µM in the series on Hepatitis C virus [3].

Regarding `CNC(=O)COc1ccc2c(c1)S(=O)(=O)N=C(c1c(O)c3cc(F)ccc3n(CCC3CC3)c1=O)N2`, the IC50 in the series with Hepatitis C virus [1] was 4.74 µM; in the series on Hepatitis C virus [2], less than 0.005 µM; in the series with Hepatitis C virus [3], 0.009 µM.

As to `CN(C)C(=O)COc1ccc2c(c1)S(=O)(=O)N=C(c1c(O)c3cc(F)ccc3n(CCC3CC3)c1=O)N2`, the IC50 in the series with Hepatitis C virus [2] turned out to be 0.012 µM; with Hepatitis C virus [3] it was 0.211 µM.

`CC(C)CCn1c(=O)c(C2=NS(=O)(=O)c3cc(CCN(C)C)ccc3N2)c(O)c2ccccc21` had an IC50 in the series with Hepatitis C virus [2] of 0.685 µM.

One may read the half-life as the time needed for the level to fall by half in the phase considered. By bioavailability is commonly meant dose-corrected exposure relative to a reference, in per cent. Higher therefore signals much systemic uptake. In the case of `NC(=O)COc1ccc2c(c1)S(=O)(=O)NC(c1c(O)c3cc(F)ccc3n(CCC3CC3)c1=O)=N2`, in the series filed under Homo sapiens, the fraction unbound was 0.001. In addition, the IC50 with Hepatitis C virus [1] is 1.48 µM; with Hepatitis C virus [2], less than 0.005 µM; with Hepatitis C virus [3] it was 0.002 µM; at Cytochrome P450 2C9, 5.4 µM. In addition, the half-life in series [4] is 1 h. This compound also came in with a bioavailability in series [5] of 33%.

On to `NC(=O)/C=C/c1ccc2c(c1)S(=O)(=O)N=C(c1c(O)c3cc(F)ccc3n(CCC3CC3)c1=O)N2`, for which the IC50 stood at 50 µM in the series on Hepatitis C virus [1], 0.202 µM in the series with Hepatitis C virus [2] and 0.039 µM in the series with Hepatitis C virus [3].

For the compound `CC(C)CCn1c(=O)c(C2=NS(=O)(=O)c3cc(C(=O)N(C)C)ccc3N2)c(O)c2ccccc21`, the IC50 with Hepatitis C virus [2] was 0.102 µM; in the series with Hepatitis C virus [3], more than 20 µM.

As to `CC(C)(Oc1ccc2c(c1)S(=O)(=O)N=C(c1c(O)c3cc(F)ccc3n(CCC3CC3)c1=O)N2)C(=O)O`, the IC50 in the series on Hepatitis C virus [2] was 0.022 µM; with Hepatitis C virus [3] it was 3.74 µM.

For the compound `CC(C)(Oc1ccc2c(c1)S(=O)(=O)N=C(c1c(O)c3cc(F)ccc3n(CCC3CC3)c1=O)N2)C(N)=O`, the half-maximal inhibitory concentration (IC50) with Hepatitis C virus [1] was 5.36 µM; with Hepatitis C virus [2] it was 0.009 µM; in the series with Hepatitis C virus [3], 0.272 µM.

For `N#CCOc1ccc2c(c1)S(=O)(=O)N=C(c1c(O)c3cc(F)ccc3n(CCC3CC3)c1=O)N2`, the figures for the IC50 in the series with Hepatitis C virus [1], with Hepatitis C virus [2] and with Hepatitis C virus [3] were 2.39 µM, less than 0.005 µM and 0.008 µM, respectively.

`O=c1c(C2=NS(=O)(=O)c3cc(OCn4cnnn4)ccc3N2)c(O)c2cc(F)ccc2n1CCC1CC1`: the IC50 is 0.006 µM with Hepatitis C virus [2] and 2 µM in the series with Hepatitis C virus [3].

For `CC(C)CCn1c(=O)c(C2=NS(=O)(=O)c3cc(O)ccc3N2)c(O)c2ccccc21`, the IC50 was 0.03 µM in the series with Hepatitis C virus [2] and more than 20 µM with Hepatitis C virus [3].

In the case of `CC(C)CCn1c(=O)c(C2=NS(=O)(=O)c3cc([N+](=O)[O-])ccc3N2)c(O)c2ccccc21`, the IC50 was 0.238 µM with Hepatitis C virus [2] and more than 20 µM in the series on Hepatitis C virus [3].

For the compound `C[C@@H](Oc1ccc2c(c1)S(=O)(=O)N=C(c1c(O)c3cc(F)ccc3n(CCC3CC3)c1=O)N2)C(N)=O`, the fraction unbound in the series listed under Homo sapiens was 0.002. For the same compound, the IC50 was 1.02 µM in the series on Hepatitis C virus [1], less than 0.005 µM in the series on Hepatitis C virus [2], 0.003 µM with Hepatitis C virus [3] and 1.7 µM against Cytochrome P450 2C9. In series [4], this compound had a half-life of 0.7 h. The same compound came in with a bioavailability in series [5] of 35%.

On to `C[C@H](Oc1ccc2c(c1)S(=O)(=O)N=C(c1c(O)c3cc(F)ccc3n(CCC3CC3)c1=O)N2)C(N)=O`, for which the IC50 was found to be 50 µM in the series with Hepatitis C virus [1], 0.012 µM with Hepatitis C virus [2] and 0.004 µM in the series with Hepatitis C virus [3].

Regarding `CC(C)CCn1c(=O)c(C2=NS(=O)(=O)c3cc(OCC#N)ccc3N2)c(O)c2ccccc21`, the IC50 in the series on Hepatitis C virus [2] came out at 0.007 µM; in the series with Hepatitis C virus [3], 0.081 µM.

As for `COC(=O)Cc1ccc2c(c1)S(=O)(=O)N=C(c1c(O)c3ccccc3n(CCC(C)C)c1=O)N2`, the IC50 turned out to be 0.023 µM with Hepatitis C virus [2] and 0.815 µM in the series with Hepatitis C virus [3].

Consider `CC(C)CCn1c(=O)c(C2=NS(=O)(=O)c3cc(CC(=O)O)ccc3N2)c(O)c2ccccc21`, for which the results for the IC50 with Hepatitis C virus [2] and in the series on Hepatitis C virus [3] were 0.008 µM and 1.6 µM, respectively.

Turning to `O=c1c(C2=NS(=O)(=O)c3cc(CO)ccc3N2)c(O)c2cc(F)ccc2n1CCC1CC1`, the IC50 turned out to be 0.017 µM with Hepatitis C virus [2] and 0.233 µM with Hepatitis C virus [3].

Turning to `O=C(O)COc1ccc2c(c1)S(=O)(=O)N=C(c1c(O)c3cc(F)ccc3n(CCC3CC3)c1=O)N2`, the values for the IC50 with Hepatitis C virus [2] and with Hepatitis C virus [3] were less than 0.005 µM and 2.29 µM, respectively.

Consider `CC(C)CCn1c(=O)c(C2=NS(=O)(=O)c3cc(N)ccc3N2)c(O)c2ccccc21`, for which the IC50 stood at 45 µM in the series with Hepatitis C virus [1], 0.013 µM with Hepatitis C virus [2] and 0.218 µM in the series on Hepatitis C virus [3].

For the compound `CC(C)CCn1c(=O)c(C2=NS(=O)(=O)c3cc(N(C)C)ccc3N2)c(O)c2ccccc21`, the IC50 was determined as 0.142 µM with Hepatitis C virus [2] and 1.25 µM in the series with Hepatitis C virus [3].

Consider `COc1ccc2c(c1)S(=O)(=O)N=C(c1c(O)c3ccccc3n(CCC(C)C)c1=O)N2`, for which the IC50 in the series with Hepatitis C virus [2] worked out at 0.055 µM; in the series with Hepatitis C virus [3], 1.39 µM.

On to `O=c1c(C2=Nc3ccccc3S(=O)(=O)N2)c(O)c2cc(F)ccc2n1CCC1CC1`, for which the IC50 in the series on Hepatitis C virus [1] turned out to be 24.5 µM; in the series on Hepatitis C virus [3] it was 0.038 µM; against Cytochrome P450 2C9, 0.84 µM. Further, in series [4], the half-life was 3 h. The bioavailability in series [5] came out at 44%.
